# Values quoted from earlier work in article PMC7904743, “WIDOCK: a reactive docking protocol for virtual screening of covalent inhibitors” (Journal of Computer-Aided Molecular Design, 2021).
# Like-named read-outs stand apart in the source and are kept apart here.
# How the values were obtained:
# OTUB2 = settings: experimental actives if % labeling higher than 50%; cited from earlier work
# NUDT7 = settings: protein labeling at 200 μM; experimental actives if % labeling higher than 50%; cited from earlier work
# [1] = thiol reactivity, cited from earlier work
# [2] = natural log of average rate constant k
# [3] = natural logarithm of average rate constant
SMILES,OTUB2 % labeling (OTUB2) [%],NUDT7 % labeling (NUDT7) [%],"ln(avg k) [1, 2]","ln(avg k) [1, 3]"
"O=C(CCl)NC1C2CC3CC(C2)CC1C3 (centres unmarked) [PCM-0102404, O=C(CCl)NC1C2CC3CC(C2)CC1C3]",33,0,-16.228,-16.228
"O=C(CCl)N1CCN(C2CCS(=O)(=O)C2)CC1 (centres unmarked) [PCM-0102405, O=C(CCl)N1CCN(C2CCS(=O)(=O)C2)CC1]",0,0,-15.476,-15.476
"O=C(CCl)Nc1ccc([N+](=O)[O-])cc1C(F)(F)F [PCM-0102406, O=C(CCl)Nc1ccc([N+](=O)[O-])cc1C(F)(F)F]",0,0,-16.390,-16.390
"CS(=O)(=O)c1cccc(NC(=O)CCl)c1 [PCM-0102407, CS(=O)(=O)c1cccc(NC(=O)CCl)c1]",33,0,-15.426,-15.426
"O=C(CCl)Nc1ccc2c(c1)OCCCO2 [PCM-0102409, O=C(CCl)Nc1ccc2c(c1)OCCCO2]",23,10,-15.744,-15.744
"COc1cccc(NC(=O)CCl)c1 [PCM-0102410, COc1cccc(NC(=O)CCl)c1]",0,0,-15.888,-15.888
"O=C(CCl)NC(=O)NC1CC1 [PCM-0102411, O=C(CCl)NC(=O)NC1CC1]",0,0,-16.777,-16.777
"O=C(CCl)Nc1cc(Cl)ccc1C(=O)O [PCM-0102412, O=C(CCl)Nc1cc(Cl)ccc1C(=O)O]",7,16,-17.207,-17.207
"O=C(CCl)N1CCSc2ccccc21 [PCM-0102415, O=C(CCl)N1CCSc2ccccc21]",16,10,-15.511,-15.511
"CS(=O)(=O)N1CCN(C(=O)CCl)CC1 [PCM-0102417, CS(=O)(=O)N1CCN(C(=O)CCl)CC1]",0,0,-15.539,-15.539
"CC1CCc2c(sc(NC(=O)CCl)c2C#N)C1 (centres unmarked) [PCM-0102420, CC1CCc2c(sc(NC(=O)CCl)c2C#N)C1]",0,47,-16.452,-16.452
"O=C(CCl)N1CCCC(c2nc3ccccc3s2)C1 (centres unmarked) [PCM-0102425, O=C(CCl)N1CCCC(c2nc3ccccc3s2)C1]",0,28,-15.591,-15.591
"CC1(c2ccccc2)NC(=O)N(NC(=O)CCl)C1=O (centres unmarked) [PCM-0102428, CC1(c2ccccc2)NC(=O)N(NC(=O)CCl)C1=O]",0,0,-17.653,-17.653
"CC(C)c1cccc(NC(=O)CCl)c1 [PCM-0102429, CC(C)c1cccc(NC(=O)CCl)c1]",23,10,-15.994,-15.994
"O=C(CCl)NNC(=O)c1ccc(F)cc1 [PCM-0102430, O=C(CCl)NNC(=O)c1ccc(F)cc1]",31,0,-17.459,-17.459
"Cc1cc(CNC(=O)CCl)cc(C)c1O [PCM-0102431, Cc1cc(CNC(=O)CCl)cc(C)c1O]",64,0,-16.592,-16.592
"CCC1CN(C(=O)CCl)CCO1 (centres unmarked) [PCM-0102436, CCC1CN(C(=O)CCl)CCO1]",0,0,-15.658,-15.658
"CC(c1ccc(F)c(F)c1)N(C)C(=O)CCl (centres unmarked) [PCM-0102438, CC(c1ccc(F)c(F)c1)N(C)C(=O)CCl]",8,14,-16.135,-16.135
"N#Cc1c(NC(=O)CCl)sc2c1CCC2 [PCM-0102452, N#Cc1c(NC(=O)CCl)sc2c1CCC2]",7,0,-16.077,-16.077
"O=C(CCl)NCC(F)(F)F [PCM-0102456, O=C(CCl)NCC(F)(F)F]",0,0,-18.378,-18.378
"O=C(CCl)Nc1nc2c(s1)CCC2 [PCM-0102457, O=C(CCl)Nc1nc2c(s1)CCC2]",0,37,-15.357,-15.357
"N#CC1(NC(=O)CCl)CCCCCC1 [PCM-0102465, N#CC1(NC(=O)CCl)CCCCCC1]",0,0,-16.080,-16.080

SMILES,OTUB2 % labeling (OTUB2) [%],NUDT7 % labeling (NUDT7) [%],"ln(avg k) [1, 2]","ln(avg k) [1, 3]"
"O=C(CCl)N1CCN(S(=O)(=O)c2ccccc2)CC1 [PCM-0102468, O=C(CCl)N1CCN(S(=O)(=O)c2ccccc2)CC1]",8,0,-15.364,-15.364
"O=C(CCl)N=c1sccn1Cc1ccccc1 [PCM-0102469, O=C(CCl)N=c1sccn1Cc1ccccc1]",11,0,-15.583,-15.583
"N#CCN(C(=O)CCl)c1ccccc1 [PCM-0102471, N#CCN(C(=O)CCl)c1ccccc1]",19,0,-15.586,-15.586
"O=C(CCl)N1CCNCC1 [PCM-0102476, O=C(CCl)N1CCNCC1]",0,0,-17.059,-17.059
"CC(c1ccccc1)N(C)C(=O)CCl (centres unmarked) [PCM-0102478, CC(c1ccccc1)N(C)C(=O)CCl]",0,10,-16.049,-16.049
"O=C(CCl)N1CCC(Cc2ccccc2)CC1 [PCM-0102492, O=C(CCl)N1CCC(Cc2ccccc2)CC1]",18,18,-16.081,-16.081
"O=C(CCl)NC(=O)NCc1ccco1 [PCM-0102494, O=C(CCl)NC(=O)NCc1ccco1]",0,0,-16.128,-16.128
"NC(=O)C1CCCN(C(=O)CCl)C1 (centres unmarked) [PCM-0102495, NC(=O)C1CCCN(C(=O)CCl)C1]",0,0,-15.454,-15.454
"O=C(CCl)NCc1cccnc1 [PCM-0102497, O=C(CCl)NCc1cccnc1]",5,0,-17.127,-17.127
"CC12CCC(CC1=NNC(=O)CCl)C2(C)C (centres unmarked) [PCM-0102498, CC12CCC(CC1=NNC(=O)CCl)C2(C)C]",0,0,-15.811,-15.811
"Cc1cc(NC(=O)CCl)no1 [PCM-0102500, Cc1cc(NC(=O)CCl)no1]",35,0,-15.955,-15.955
"Cc1nn(-c2ccccc2)c(C)c1NC(=O)CCl [PCM-0102501, Cc1nn(-c2ccccc2)c(C)c1NC(=O)CCl]",9,9,-16.489,-16.489
"CC(C)NC(=O)NC(=O)CCl [PCM-0102504, CC(C)NC(=O)NC(=O)CCl]",0,0,-16.238,-16.238
"O=C(CCl)Nc1ccc(Br)cc1Cl [PCM-0102505, O=C(CCl)Nc1ccc(Br)cc1Cl]",7,59,-16.521,-16.521
"O=C(CCl)Nc1ccccc1I [PCM-0102509, O=C(CCl)Nc1ccccc1I]",0,0,-16.748,-16.748
"O=C(CCl)NNC(=O)c1ccccc1F [PCM-0102510, O=C(CCl)NNC(=O)c1ccccc1F]",52,0,-17.412,-17.412
"Cc1ccc([N+](=O)[O-])c(NC(=O)CCl)c1C [PCM-0102511, Cc1ccc([N+](=O)[O-])c(NC(=O)CCl)c1C]",7,15,-16.700,-16.700
"O=C(CCl)N1CCCC1c1ccc2c(c1)OCCCO2 (centres unmarked) [PCM-0102512, O=C(CCl)N1CCCC1c1ccc2c(c1)OCCCO2]",0,88,-15.497,-15.497
"O=C(CCl)N1CCCCC1 [PCM-0102514, O=C(CCl)N1CCCCC1]",0,0,-16.289,-16.289
"CC(C)N(CC(F)(F)F)C(=O)CCl [PCM-0102516, CC(C)N(CC(F)(F)F)C(=O)CCl]",0,0,-17.383,-17.383
"CNC(=O)C1CCCN1C(=O)CCl (centres unmarked) [PCM-0102518, CNC(=O)C1CCCN1C(=O)CCl]",0,0,-16.106,-16.106
"CC(C)c1ccc(NC(=O)CCl)cc1 [PCM-0102532, CC(C)c1ccc(NC(=O)CCl)cc1]",33,18,-15.987,-15.987
